Source: patent US20040152994A1, “Liver function test” (priority 2001, published 2004)

Tested on: hepatic glycine conjugation
Details: in vivo
Description: The test is carried out in the morning on an empty stomach after an overnight fast.
To equilibrate the body's glycine pool, an oral bolus of 3 g of glycine dissolved in 200 ml of water is given 1 hour prior to tracer administration.
At t=0 min, a weight adjusted dose of [^13C−1]-glycine (eg. 150 mg for 44.5 to 95.2 kg body weight) was given orally. Breath samples are taken subsequently every 10 minutes over a period of 300 minutes.
At t=160 min, a second dose of [^13C−1]-glycine was given, followed by three equal dozes of sodium benzoate (eg. 284.2 mg) at 170, 180 and 190 minutes.
Breath samples are measured for ^13CO2 content above base line, ie. the mean of 3 pre-test samples. Time to peak of ^13CO2 exhalation, ^13CO2 exhalation in percentage of given dose [% dose/hour] and cumulative ^13CO2 exhalation over time are determined. Mathematical modelling of the various curves is used to de-convolute the dose recovery curves of parts A and B.
The breath test consisted of two parts, A and B, that were at first carried out on 2 consecutive days and later combined into an one-day protocol.
Part A; After an overnight fast, subjects were given orally a weight adjusted dose of the tracer ^13C-glycine dissolved in water
Part B: After an, overnight fast, subjects were given orally the same amount of tracer plus an optimised amount of sodium benzoate.
For the one-day protocol, part B commenced 130 min after the start of part A.
Breath samples were collected in 10 min intervals.
10 volunteers (5 women, 5 men) with no medical history of liver problems were used as control group.
9 in-patients (6 women, 3 men) with varying stages of liver failure and different disease etiology were tested. Ethical approval for this ^13CO2-breath test, study was sought and obtained from the Tayside Healthboard Ethics Committee.

## NC[13C](=O)O [^13C-glycine, [^13C−1]-glycine]
  Time to peak PDR in patients compared to the control group: significantly delayed
  highest GCa-value (apparent glycine conjugation) in patients: 23.26%
  mean PDRm ratio: 0.59
